Laboratory results from patent US12686689B2, “HPK1 inhibitor, preparation method therefor and use thereof” (WIGEN BIOMEDICINE TECHNOLOGY (SHANGHAI) CO., LTD., priority 2020, dated 2026).

Target: HPK1 (Homo sapiens, UniProt Q92918)
Assay: Inhibitory effect against enzyme activity of HPK1 (lantha Screen, PKC substrate)
Assay type: biochemical
Details: class symbols defined as IC50 ranges, read-out: Inhibition rate (%)
Protocol: Example 130: Assay of Inhibitory Effect of Compound Against Enzyme Activity of HPK1
The inhibitory effect of the compound against the enzyme activity of HPK1 was determined by using a lantha Screen method with PKC as a substrate. The process comprises the following specific steps: the HPK1 protein was incubated with the serially-diluted compound at 28° C. for 10 min followed by addition of fluoroescein-labeled PKC substrate and ATP to react for 90 min. After termination of the reaction, a Terbium-labeled antibody against phosphorylated PKC was added and incubated for 60 min. The energy transfer of Teribium and fluoroscein was monitored by detecting luminescence at 520 nm and 450 nm to quantify PKC as the level of phosphorylation of […]. Inhibition % and IC50 of the compound were calculated compared to the control group.

HPK1, sequence (Q92918 whole entry): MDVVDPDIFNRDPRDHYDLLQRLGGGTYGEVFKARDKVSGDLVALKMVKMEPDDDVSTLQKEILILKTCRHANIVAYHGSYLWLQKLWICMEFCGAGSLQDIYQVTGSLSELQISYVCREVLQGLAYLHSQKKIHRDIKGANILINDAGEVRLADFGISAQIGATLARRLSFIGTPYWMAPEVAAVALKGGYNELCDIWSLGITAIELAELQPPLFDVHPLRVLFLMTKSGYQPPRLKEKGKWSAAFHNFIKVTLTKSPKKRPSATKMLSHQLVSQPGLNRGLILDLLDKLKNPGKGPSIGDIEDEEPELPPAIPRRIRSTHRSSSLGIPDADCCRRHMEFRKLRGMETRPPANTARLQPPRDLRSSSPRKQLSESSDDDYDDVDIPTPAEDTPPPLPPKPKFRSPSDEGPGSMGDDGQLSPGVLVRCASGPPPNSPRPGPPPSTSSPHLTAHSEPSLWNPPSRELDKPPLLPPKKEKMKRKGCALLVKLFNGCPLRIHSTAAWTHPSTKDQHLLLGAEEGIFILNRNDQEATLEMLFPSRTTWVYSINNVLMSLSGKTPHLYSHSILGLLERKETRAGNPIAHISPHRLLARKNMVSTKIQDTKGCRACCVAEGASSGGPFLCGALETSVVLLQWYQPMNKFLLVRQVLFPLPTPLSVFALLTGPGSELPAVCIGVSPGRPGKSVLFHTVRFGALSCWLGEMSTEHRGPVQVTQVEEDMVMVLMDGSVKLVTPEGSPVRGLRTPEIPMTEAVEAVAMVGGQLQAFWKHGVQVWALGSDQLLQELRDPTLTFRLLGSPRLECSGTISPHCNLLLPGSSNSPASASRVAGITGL

SMILES	IC50 [nM]
Cc1ccccc1-c1cc2c(-c3ccc4c(c3)OCC3CN(C)CCN43)n[nH]c2cc1C#N (stereo not shown) [Compound 3]	10 to 100
CN1CCN2c3ccc(-c4n[nH]c5cc(C#N)c(-c6c(F)cccc6F)cc45)cc3OCC2C1 (stereo not shown) [Compound 4]	10 to 100
Cc1cccc(F)c1-c1cc2c(-c3ccc4c(c3)OCC3CN(C)CCN43)n[nH]c2cc1C#N (stereo not shown) [Compound 5]	10 to 100
CN1CCN2c3ccc(-c4n[nH]c5cc(C#N)c(-c6cccc(F)c6F)cc45)cc3OCC2C1 (stereo not shown) [Compound 7]	≥ 100
CN1CCN2c3ccc(-c4n[nH]c5cc(C#N)c(-c6cccc(NS(C)(=O)=O)c6F)cc45)cc3OCC2C1 (stereo not shown) [Compound 11]	10 to 100
CN1CCN2c3ccc(-c4n[nH]c5cc(C#N)c(-c6cccc(S(C)(=O)=O)c6F)cc45)cc3OCC2C1 (stereo not shown) [Compound 13]	≥ 100
CN1CCN2c3ccc(-c4n[nH]c5cc(C#N)c(-c6c(F)cc(NC(=O)Cc7cccnc7)cc6F)cc45)cc3OCC2C1 (stereo not shown) [Compound 31]	10 to 100
CN1CCN2c3ccc(-c4n[nH]c5cc(C#N)c(-c6c(F)cc(OC(=O)N(C)C)cc6F)cc45)cc3OCC2C1 (stereo not shown) [Compound 34]	10 to 100
CN1CCN2c3ccc(-c4n[nH]c5cc(C#N)c(-c6c(F)ccc7c6CCCC7N)cc45)cc3OCC2C1 (stereo not shown) [Compound 38]	≤ 10
CN1CCN2c3ccc(-c4n[nH]c5cc(C#N)c(-c6c(F)cc7c(c6F)CC(N)CC7)cc45)cc3OCC2C1 (stereo not shown) [Compound 39]	≤ 10
CN1CCN2c3ccc(-c4n[nH]c5cc(C#N)c(-c6ccc(-c7ccccn7)cc6F)cc45)cc3OCC2C1 (stereo not shown) [Compound 40]	10 to 100
CN1CCN2c3ccc(-c4n[nH]c5cc(C#N)c(-c6cccnc6)cc45)cc3OCC2C1 (stereo not shown) [Compound 41]	≤ 10
CN1CCN2c3ccc(-c4n[nH]c5cc(C#N)c(-c6ncccc6F)cc45)cc3OCC2C1 (stereo not shown) [Compound 42]	≤ 10
COc1ccncc1-c1cc2c(-c3ccc4c(c3)OCC3CN(C)CCN43)n[nH]c2cc1C#N (stereo not shown) [Compound 44]	≤ 10
Cc1cncc(-c2cc3c(-c4ccc5c(c4)OCC4CN(C)CCN54)n[nH]c3cc2C#N)c1 (stereo not shown) [Compound 45]	≤ 10
CNC(=O)c1cncc(-c2cc3c(-c4ccc5c(c4)OCC4CN(C)CCN54)n[nH]c3cc2C#N)c1 (stereo not shown) [Compound 46]	≤ 10
Cc1n[nH]cc1-c1cc2c(-c3ccc4c(c3)OCC3CN(C)CCN43)n[nH]c2cc1C#N (stereo not shown) [Compound 47]	≤ 10
CN1CCN2c3ccc(-c4n[nH]c5cc(C#N)c(-c6cncnc6)cc45)cc3OCC2C1 (stereo not shown) [Compound 48]	≤ 10
CN1CCN2c3ccc(-c4n[nH]c5cc(C#N)c(-c6cnccn6)cc45)cc3OCC2C1 (stereo not shown) [Compound 49]	≤ 10
CN1CCN2c3ccc(-c4n[nH]c5cc(C#N)c(-c6cccc7[nH]ncc67)cc45)cc3OCC2C1 (stereo not shown) [Compound 50]	≤ 10

SMILES	IC50 [nM]
CN1CCN2c3ccc(-c4n[nH]c5cc(C#N)c(-c6cnc7cnn(C)c7c6)cc45)cc3OCC2C1 (stereo not shown) [Compound 51]	≤ 10
CN1CCN2c3ccc(-c4n[nH]c5cc(C#N)c(-c6cnc7c(c6)ncn7C)cc45)cc3OCC2C1 (stereo not shown) [Compound 52]	≤ 10
CN1CCN2c3ccc(-c4n[nH]c5cc(C#N)c(-c6cnc7nccnc7c6)cc45)cc3OCC2C1 (stereo not shown) [Compound 53]	≤ 10
CN1CCN2c3ccc(-c4n[nH]c5cc(C#N)c(-c6cncc7ccccc67)cc45)cc3OCC2C1 (stereo not shown) [Compound 54]	10 to 100
CN1CCN2c3ccc(-c4n[nH]c5cc(C#N)c(-c6cccn7ccnc67)cc45)cc3OCC2C1 (stereo not shown) [Compound 55]	≤ 10
CN1CCN2c3ccc(-c4n[nH]c5cc(C#N)c(-c6cccn7cnnc67)cc45)cc3OCC2C1 (stereo not shown) [Compound 56]	≤ 10
CN1CCN2c3ccc(-c4n[nH]c5cc(C#N)c(-c6cccn7ncnc67)cc45)cc3OCC2C1 (stereo not shown) [Compound 57]	≤ 10
CN1CCN2c3ccc(-c4n[nH]c5cc(C#N)c(-c6cnc7ccnn7c6)cc45)cc3OCC2C1 (stereo not shown) [Compound 58]	≤ 10
CN1CCN2c3ccc(-c4n[nH]c5cc(C#N)c(-c6ccc7nccn7c6)cc45)cc3OCC2C1 (stereo not shown) [Compound 59]	≤ 10
CN1CCN2c3ccc(-c4n[nH]c5cc(C#N)c(-c6ccn7ncnc7c6)cc45)cc3OCC2C1 (stereo not shown) [Compound 60]	≤ 10
CN1CCN2c3ccc(-c4n[nH]c5cc(C#N)c(-c6ccn7cnnc7c6)cc45)cc3OCC2C1 (stereo not shown) [Compound 61]	≤ 10
CN1CCN2c3ccc(-c4n[nH]c5cc(C#N)c(-c6cnn7ccccc67)cc45)cc3OCC2C1 (stereo not shown) [Compound 62]	10 to 100
CN1CCN2c3ccc(-c4n[nH]c5cc(C#N)c(-c6cnn7cccnc67)cc45)cc3OCC2C1 (stereo not shown) [Compound 63]	≤ 10
COc1cccc(F)c1-c1cc2c(-c3ccc4c(c3)OCC3CN(C)CCN43)n[nH]c2cn1 (stereo not shown) [Compound 64]	≤ 10
Cc1cccc(F)c1-c1cc2c(-c3ccc4c(c3)OCC3CN(C)CCN43)n[nH]c2cn1 (stereo not shown) [Compound 65]	10 to 100
CN1CCN2c3ccc(-c4n[nH]c5cnc(-c6c(F)cccc6F)cc45)cc3OCC2C1 (stereo not shown) [Compound 66]	10 to 100
CNCc1cc(F)c(-c2cc3c(-c4ccc5c(c4)OCC4CN(C)CCN54)n[nH]c3cn2)c(F)c1 (stereo not shown) [Compound 68]	≤ 10
CNCc1cc(C)c(-c2cc3c(-c4ccc5c(c4)OCC4CN(C)CCN54)n[nH]c3cn2)c(F)c1 (stereo not shown) [Compound 69]	≤ 10
Cc1ccncc1-c1cc2c(-c3ccc4c(c3)OCC3CN(C)CCN43)n[nH]c2cn1 (stereo not shown) [Compound 70]	≤ 10
COc1ccncc1-c1cc2c(-c3ccc4c(c3)OCC3CN(C)CCN43)n[nH]c2cn1 (stereo not shown) [Compound 71]	≤ 10

Next, values leading:

IC50 [nM]	SMILES
≤ 10	CN1CCN2c3ccc(-c4n[nH]c5cc(C#N)c(-c6ccccc6F)cc45)cc3OCC2C1 (stereo not shown) [Compound 1, 5-(2-fluorophenyl)-3-(3-methyl-1,2,3,4,4a,5-hexahydrobenzo[b]pyrazino[1,2-d][1,4]oxazin-8-yl)-1H-indazole-6-carbonitrile]
≤ 10	CN1CCN2c3ccc(-c4n[nH]c5cc(C#N)c(-c6ccccc6F)cc45)cc3OC[C@@H]2C1 [Compound 1-a]
≤ 10	CN1CCN2c3ccc(-c4n[nH]c5cc(C#N)c(-c6ccccc6F)cc45)cc3OC[C@H]2C1 [Compound 1-b]
≤ 10	COc1ccccc1-c1cc2c(-c3ccc4c(c3)OCC3CN(C)CCN43)n[nH]c2cc1C#N (stereo not shown) [Compound 2]
≤ 10	CN1CCN2c3ccc(-c4n[nH]c5cc(C#N)c(-c6cccc(C#N)c6F)cc45)cc3OCC2C1 (stereo not shown) [Compound 8]
≤ 10	CN1CCN2c3ccc(-c4n[nH]c5cc(C#N)c(-c6cccc(C(N)=O)c6F)cc45)cc3OCC2C1 (stereo not shown) [Compound 9]
≤ 10	CN1CCN2c3ccc(-c4n[nH]c5cc(C#N)c(-c6cccc(C(=O)NCc7ccncc7)c6F)cc45)cc3OCC2C1 (stereo not shown) [Compound 10]
≤ 10	CN1CCN2c3ccc(-c4n[nH]c5cc(C#N)c(-c6cccc(P(C)(C)=O)c6F)cc45)cc3OCC2C1 (stereo not shown) [Compound 12]
≤ 10	CNS(=O)(=O)c1cccc(-c2cc3c(-c4ccc5c(c4)OCC4CN(C)CCN54)n[nH]c3cc2C#N)c1F (stereo not shown) [Compound 14]
≤ 10	Cc1ccc(F)c(F)c1-c1cc2c(-c3ccc4c(c3)OCC3CN(C)CCN43)n[nH]c2cc1C#N (stereo not shown) [Compound 15]
≤ 10	CNCc1cc(C)c(-c2cc3c(-c4ccc5c(c4)OCC4CN(C)CCN54)n[nH]c3cc2C#N)c(F)c1 (stereo not shown) [Compound 17]
≤ 10	CNCc1cc(F)c(-c2cc3c(-c4ccc5c(c4)OCC4CN(C)CCN54)n[nH]c3cc2C#N)c(C(F)(F)F)c1 (stereo not shown) [Compound 19]
≤ 10	CNCc1cc(F)c(-c2cc3c(-c4ccc5c(c4)OCC4CN(C)CCN54)n[nH]c3cc2C#N)c(OC)c1 (stereo not shown) [Compound 20]
≤ 10	CCNCc1cc(F)c(-c2cc3c(-c4ccc5c(c4)OCC4CN(C)CCN54)n[nH]c3cc2C#N)c(F)c1 (stereo not shown) [Compound 21]
≤ 10	CN1CCN2c3ccc(-c4n[nH]c5cc(C#N)c(-c6c(F)cc(C7CCCN7)cc6F)cc45)cc3OCC2C1 (stereo not shown) [Compound 22]
≤ 10	CN1CCN2c3ccc(-c4n[nH]c5cc(C#N)c(-c6c(F)cc(C7CCCCN7)cc6F)cc45)cc3OCC2C1 (stereo not shown) [Compound 23]
≤ 10	CN1CCN2c3ccc(-c4n[nH]c5cc(C#N)c(-c6c(F)cc(CC#N)cc6F)cc45)cc3OCC2C1 (stereo not shown) [Compound 24]
≤ 10	COCc1cc(F)c(-c2cc3c(-c4ccc5c(c4)OCC4CN(C)CCN54)n[nH]c3cc2C#N)c(F)c1 (stereo not shown) [Compound 25]
≤ 10	CN1CCN2c3ccc(-c4n[nH]c5cc(C#N)c(-c6c(F)cc(C7CCCC7N)cc6F)cc45)cc3OCC2C1 (stereo not shown) [Compound 26]
≤ 10	CN(C)CC(=O)Nc1cc(F)c(-c2cc3c(-c4ccc5c(c4)OCC4CN(C)CCN54)n[nH]c3cc2C#N)c(F)c1 (stereo not shown) [Compound 27]
≤ 10	CN1CCN2c3ccc(-c4n[nH]c5cc(C#N)c(-c6c(F)cc(NC(=O)CN7CCCC7)cc6F)cc45)cc3OCC2C1 (stereo not shown) [Compound 28]
≤ 10	CN1CCN2c3ccc(-c4n[nH]c5cc(C#N)c(-c6c(F)cc(NC(=O)CN7CC8(COC8)C7)cc6F)cc45)cc3OCC2C1 (stereo not shown) [Compound 29]
≤ 10	CN1CCN2c3ccc(-c4n[nH]c5cc(C#N)c(-c6c(F)cc(NC(=O)CC#N)cc6F)cc45)cc3OCC2C1 (stereo not shown) [Compound 30]
≤ 10	CN1CCN2c3ccc(-c4n[nH]c5cc(C#N)c(-c6c(F)cc(OCc7ccncc7)cc6F)cc45)cc3OCC2C1 (stereo not shown) [Compound 32]
≤ 10	CN1CCC(Oc2cc(F)c(-c3cc4c(-c5ccc6c(c5)OCC5CN(C)CCN65)n[nH]c4cc3C#N)c(F)c2)CC1 (stereo not shown) [Compound 33]
≤ 10	CN1CCN2c3ccc(-c4n[nH]c5cc(C#N)c(-c6c(F)cc(C(=O)N7CC(O)C7)cc6F)cc45)cc3OCC2C1 (stereo not shown) [Compound 36]
≤ 10	CN1CCN2c3ccc(-c4n[nH]c5cc(C#N)c(-c6c(F)ccc7c6CCNC7)cc45)cc3OCC2C1 (stereo not shown) [Compound 37]
